Data published in PubChem BioAssay AID2742 (NMMLSC, 2010).
Where “and” joins values, the source holds several entries; their conditions need not be identical. Identical values can stand only once. Calls of active or inactive are those of the source.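 The calls were made as follows: active = fitted half-maximal concentration for changing background-corrected GFP signal at or below a set limit; inactive = the rest.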

Assay: modulators of MEP2-GFP levels in yeast, dose response, S. cerevisiae, flow cytometry GFP, MLPCN hits (AID 2742);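 also: GFP tag reports level of MEP2 protein as a downstream target of TOR signalling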
Conditions: S. cerevisiae MEP2-GFP strain, flow cytometry fluorescence, 3 h; at 33 µM (top of the series)

SMILES: N/C(Cc1ccc(Cl)cc1Cl)=N\OC(=O)c1ccccc1
- GFP fluorescence (kMESF), higher = increase: 2.82 kMESF (inactive)

SMILES: Cc1ccnc(N2C(=O)c3cccc4c([N+](=O)[O-])ccc(c34)C2=O)c1
- GFP fluorescence (kMESF), higher = increase: 24.6 kMESF (inactive)

SMILES: O=C(COc1c(Br)cc(Br)c2cccnc12)N1CCc2ccccc2C1
- GFP fluorescence (kMESF), higher = increase: 4.11 kMESF (inactive)

SMILES: O=[N+]([O-])c1ccc(O)c2ncccc12
- GFP fluorescence (kMESF), higher = increase: 3.94 kMESF (inactive) and 3.38 kMESF (inactive)

SMILES: O=C(C#Cc1ccccc1)c1cccc([N+](=O)[O-])c1
- GFP fluorescence (kMESF), higher = increase: 4.67 kMESF (inactive)

SMILES: Cc1cc(C)c(C)c(S(=O)(=O)ON2C(=O)c3ccccc3C2=O)c1C
- GFP fluorescence (kMESF), higher = increase: 4.23 kMESF (inactive)

SMILES: CC[C@H](C)/C=C(C)/C=C/C1=CC2=C(Cl)C(=O)[C@@](C)(OC(C)=O)C(=O)C2=CO1
- GFP fluorescence (kMESF), higher = increase: 0.91 kMESF (inactive)

SMILES: COc1cccc(/C=N/Nc2ccc([N+](=O)[O-])cn2)c1O
- GFP fluorescence (kMESF), higher = increase: 3.24 kMESF (inactive)

SMILES: Cc1ccc(N2C(=O)CC(Sc3ncn[nH]3)C2=O)cc1C (configuration not stated)
- GFP fluorescence (kMESF), higher = increase: 3.74 kMESF (inactive)

SMILES: CCOC(=O)CSC1=NC(=O)/C(=C/c2ccc(Br)cc2)S1
- GFP fluorescence (kMESF), higher = increase: 4.7 kMESF (inactive)

SMILES: O=C(c1ccccn1)c1conc1C(=O)c1ccc(Br)cc1
- GFP fluorescence (kMESF), higher = increase: 2.83 kMESF (inactive)

SMILES: C[n+]1ccc(/C=C/c2c[nH]c3ccccc23)cc1
- GFP fluorescence (kMESF), higher = increase: 7.26 kMESF (inactive)

SMILES: CCOC(=O)CSC1=NC(=O)/C(=C/c2ccc(OC)cc2)S1
- GFP fluorescence (kMESF), higher = increase: 1.26 kMESF (inactive)

SMILES: CCn1c(=O)c(C(C)=O)c(O)c2ccccc21
- GFP fluorescence (kMESF), higher = increase: 3.81 kMESF (inactive)

SMILES: O=C1c2ccccc2C(=O)N1OS(=O)(=O)c1ccccc1
- GFP fluorescence (kMESF), higher = increase: 3.26 kMESF (inactive)

SMILES: O=[N+]([O-])c1ccc(Sc2nc3ccccc3o2)c([N+](=O)[O-])c1
- GFP fluorescence (kMESF), higher = increase: 2.65 kMESF (inactive)

SMILES: CC(C)[C@@]1(c2ccccc2)ON(c2ccccc2C(F)(F)F)C1=O
- GFP fluorescence (kMESF), higher = increase: 2.37 kMESF (inactive)

SMILES: Cc1cc(Br)c2c(c1)/C(=C/C(=O)c1cccs1)C(=O)N2
- GFP fluorescence (kMESF), higher = increase: 3.78 kMESF (inactive)

SMILES: Cc1ccc(C(=O)/C=C/C(=O)c2ccc(C)cc2)cc1
- GFP fluorescence (kMESF), higher = increase: 3.81 kMESF (inactive)

SMILES: COc1ccccc1[C@@]1(C)ON(c2ccccc2C(F)(F)F)C1=O
- GFP fluorescence (kMESF), higher = increase: 5.08 kMESF (inactive)

SMILES: CC(C)[C@@]1(c2ccc(Cl)cc2)ON(c2ccccc2C(F)(F)F)C1=O
- GFP fluorescence (kMESF), higher = increase: 2.87 kMESF (inactive)

SMILES: Oc1c(Br)cc(Br)cc1C=Nc1ccc2[nH]ncc2c1
- GFP fluorescence (kMESF), higher = increase: 5.46 kMESF (inactive)

SMILES: C=CCOc1cccc(C(=O)/C=C2/C(=O)Nc3ccccc32)c1
- GFP fluorescence (kMESF), higher = increase: 3.41 kMESF (inactive)

SMILES: COc1ccc(C(=O)/C=C2/C(=O)Nc3ccccc32)cc1
- GFP fluorescence (kMESF), higher = increase: 4.25 kMESF (inactive)

SMILES: O=S(=O)(/N=C(\Sc1ccc(Cl)cc1)c1ccccc1)c1ccccc1
- GFP fluorescence (kMESF), higher = increase: 4.33 kMESF (inactive)

SMILES: O=C1c2cccc3c([N+](=O)[O-])ccc(c23)C(=O)N1CCc1ccccn1
- GFP fluorescence (kMESF), higher = increase: 5.48 kMESF (inactive)

SMILES: O=C(Nc1ccc(NC(=O)c2cc3ccccc3o2)cc1)c1ccco1
- GFP fluorescence (kMESF), higher = increase: 2.1 kMESF (inactive)

SMILES: Cc1ccc2c(nc3s/c(=C\c4ccc(-c5ccccc5C(=O)O)o4)c(=O)n32)c1C
- GFP fluorescence (kMESF), higher = increase: 25.5 kMESF (inactive)

SMILES: COc1cc(C=C2C(=O)c3ccccc3C2=O)cc(OC)c1OC
- GFP fluorescence (kMESF), higher = increase: 2.43 kMESF (inactive)

SMILES: O=C(CSC1=NS(=O)(=O)c2ccccc21)Nc1ccccc1
- GFP fluorescence (kMESF), higher = increase: 2.66 kMESF (inactive)

SMILES: COc1ccc(/C=C/C(=O)NC(=S)NNC(=O)c2cnccn2)cc1
- GFP fluorescence (kMESF), higher = increase: 3.67 kMESF (inactive)

SMILES: CC(=O)Oc1ccc(N2C(=O)C3C4C=CC(CO)(O4)C3C2=O)cc1 (configuration not stated)
- GFP fluorescence (kMESF), higher = increase: 3.1 kMESF (inactive)

SMILES: Cc1cccc(/C=C/C(=O)c2ccc([N+](=O)[O-])o2)c1
- GFP fluorescence (kMESF), higher = increase: 5.78 kMESF (inactive)

SMILES: Cc1ccc2c(c1)c(/C=C/c1cc[n+](C)cc1)c(C)n2C
- GFP fluorescence (kMESF), higher = increase: 9.93 kMESF (inactive)

SMILES: O=S1(=O)C=C(Sc2nc3ccccc3s2)c2ccccc21
- GFP fluorescence (kMESF), higher = increase: 5.18 kMESF (inactive)

SMILES: COc1ccc(OCC(=O)NNC(=S)NC(=O)C2CCCCC2)cc1
- GFP fluorescence (kMESF), higher = increase: 3.25 kMESF (inactive)

SMILES: COc1cc(CNC(=O)CCCCCCC(C)C)ccc1O
- GFP fluorescence (kMESF), higher = increase: 2.32 kMESF (inactive)

SMILES: COC(=O)/C(=C/c1c[nH]c2ccccc12)[N+](=O)[O-]
- GFP fluorescence (kMESF), higher = increase: 4.87 kMESF (inactive)

SMILES: CC[C@]1(c2ccccc2OC)ON(c2ccccc2C(F)(F)F)C1=O
- GFP fluorescence (kMESF), higher = increase: 4.31 kMESF (inactive)

SMILES: Cc1cccc(C(=O)NC(=S)NNC(=O)Cc2ccccc2)c1
- GFP fluorescence (kMESF), higher = increase: 3.56 kMESF (inactive)

SMILES: Cc1ccccc1OCCOC(=O)c1ccc(S(=O)(=O)N2CCCC2)cc1
- GFP fluorescence (kMESF), higher = increase: 1.52 kMESF (inactive)

SMILES: Cc1cc(C2CCCCC2)n(O)c(=O)c1
- GFP fluorescence (kMESF), higher = increase: 5.36 kMESF (inactive)
